Assay results published in BindingDB's records for doi:10.7270/Q2K64GGJ (University of Pittsburgh, 2006).

Biological target: T1, Dual specificity protein phosphatase 1 (Homo sapiens, UniProt P28562)
T1 sequence (P28562 whole entry): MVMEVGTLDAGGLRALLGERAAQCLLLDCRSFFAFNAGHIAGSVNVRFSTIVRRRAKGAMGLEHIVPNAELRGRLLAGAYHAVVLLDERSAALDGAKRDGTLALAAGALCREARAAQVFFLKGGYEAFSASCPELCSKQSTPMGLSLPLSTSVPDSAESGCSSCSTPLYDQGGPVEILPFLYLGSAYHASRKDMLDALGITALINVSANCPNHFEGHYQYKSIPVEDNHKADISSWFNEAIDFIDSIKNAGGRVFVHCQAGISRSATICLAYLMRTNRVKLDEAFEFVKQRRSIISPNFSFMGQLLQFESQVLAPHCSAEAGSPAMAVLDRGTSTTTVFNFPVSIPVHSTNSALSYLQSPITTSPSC
Assay: DUSP1 dephosphorylation activity inhibition – biochemical, in vitro, dose response, specificity testing, selectivity assay, confirmation (AID 442)

| Compound | IC50 [µM] |
| --- | --- |
| COc1ccc(Cn2c(C)nc3c(c2=O)c2nc4ccccc4nc2n3Cc2ccco2)cc1 [MLS000079944] | 18.1 |
| CCCCC[C@H](O)C=C[C@H]1C=CC(=O)[C@@H]1C/C=C\CCCC(=O)O [(Z)-7-[(1R,5S)-2-oxidanylidene-5-[(E,3S)-3-oxidanyloct-1-enyl]cyclopent-3-en-1-yl]hept-5-enoic acid] | 23.3 |
| CCn1nc(-c2ccccc2)nc2c(=O)n(C)c(=O)nc1-2 [1-Ethyl-6-methyl-3-phenyl-1H-pyrimido[5,4-e][1,2,4]triazine-5,7-dione] | 0.19 |

Further lines, results first:

| IC50 [µM] | Compound |
| --- | --- |
| 16.8 | CC(C)Cn1c(N)c(C(=O)COC(=O)c2cc(-c3ccco3)nc3ccccc23)c(=O)n(C)c1=O [2-(2-furanyl)-4-quinolinecarboxylic acid [2-[4-amino-1-methyl-3-(2-methylpropyl)-2,6-dioxo-5-pyrimidinyl]-2-oxoethyl] ester] |
| 40.3 | Cc1ccc2c(c1C)NC(C(=O)O)C1CC=CC21 (stereo not given) |
